Each structure is given as a SMILES string. Some results are limits rather than exact numbers.

One assay concerns B16-F10 cells. Nature of the assay: Cell proliferation assay in B16-F10 cells with IFN-gamma (CellTiter-Glo). Type of assay: cell-based. The following applies: 120 h, mouse IFN-gamma 10 ng/mL, read-out: PTPN2 Prolif 5d B16F10 EC50. Here is the method: B16-F10 cells (ATCC, Manassas, VA, #CRL-6475) were cultured in DMEM growth medium (ThermoFisher Scientific, Waltham, MA, #11995-040) supplemented with 10% heat inactivated FBS (ThermoFisher Scientific, #16140-071) and 1% pen/strep (ThermoFisher Scientific, #15140-122). The cells were seeded into two white opaque 384-well tissue culture treated microplates (PerkinElmer, Waltham, MA, #6007688) at a density of 100 cells/well in 20 uL total volume and incubated overnight at 37 C and 5% CO2. 30 nL of compounds dissolved in DMSO were then transferred from a source plate into target wells with the Echo650 acoustic liquid handler (Beckman Coulter, Indianapolis, IN). Negative control wells received 30 nL of DMSO only (0.15% final concentration). Plates were returned to the incubator for 1 hour and then cells treated with either 5 uL of growth medium or 5 uL of growth medium containing 50 ng/ml of recombinant mouse IFN-gamma protein (R&D Systems, Minneapolis, MN, #485-MI/CF, 10 ng/mL final concentration) using the Assist automated pipetting platform (INTEGRA Biosciences, Hudson, NH). Plates were incubated at 37C for 4 days and cell proliferation assayed with the CellTiter-Glo reagent (Promega, Madison, WI, #G7573, 25 uL per well). […] Off-target compound mediated cytotoxicity was identified by checking for growth inhibition in the absence of IFNg.
A general note: Cellular ATP, detected with luciferase, serves as a proxy for viable cell number.

Another assay deals with T1, human PTPN2 (Homo sapiens, UniProt P17706).
T1 sequence (P17706 1-415): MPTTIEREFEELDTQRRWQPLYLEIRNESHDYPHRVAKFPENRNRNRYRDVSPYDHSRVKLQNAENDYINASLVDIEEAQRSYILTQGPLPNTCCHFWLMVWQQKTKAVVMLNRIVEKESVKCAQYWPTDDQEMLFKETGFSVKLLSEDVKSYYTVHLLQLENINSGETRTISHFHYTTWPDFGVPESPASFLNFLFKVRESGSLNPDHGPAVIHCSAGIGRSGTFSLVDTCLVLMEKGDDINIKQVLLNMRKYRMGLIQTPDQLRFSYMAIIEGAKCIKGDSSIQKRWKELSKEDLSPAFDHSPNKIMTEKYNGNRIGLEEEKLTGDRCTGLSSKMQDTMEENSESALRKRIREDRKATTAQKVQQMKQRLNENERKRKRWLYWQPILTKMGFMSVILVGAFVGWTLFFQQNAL
Put plainly: Phosphatase activity assay using DiFMUP as substrate (PTPN2 BCHEM DIFMUP). Type of assay: biochemical. The arrangement: purchased MilliporeSigma SRP5075. The following applies: human PTPN2 0.15 nM, 10 mM DTT, room temperature. The procedure:
The PTPN2 biochemical assay was performed as follows, a 5× stock solution of human PTPN2 (SRP5075, MilliporeSigma, Burlington, MA) and a 1.25× stock solution of DiFMUP (D6567, ThermoFisher Scientific, Waltham, MA), were prepared in 1× reaction buffer consisting of 50 mM HEPES, pH 7.4, 1 mM EDTA, 150 mM NaCl, 0.2 mg/mL BSA, 100 U/mL catalase and 10 mM DTT. […] of the DiFMUP substrate solution, for a final concentration of […] DiFMUP substrate, was added to a Corning 3574 384-well, white, non-binding surface microtiter plate containing […] of serially diluted test compounds prepared in DMSO. The reactions were started with the addition of […] of the enzyme solution, for a final PTPN2 concentration of 0.15 nM, and monitored every 105 seconds for 60 minutes at λEX 360/λEM 460 in a BioTek Synergy HTX plate reader (Agilent Technologies, Santa Clara, CA) at room temperature. The initial linear portions of the progress curves were fit according to a linear equation to yield the slopes and converted to % inhibition based on a value of 100% activity for the no inhibitor treated control. IC50 values of each compound were obtained by fitting the % inhibition-compound concentration curves using Dotmatics software (Dotmatics, Bishops Stortford, Hertfordshire, England).
For IC50 data, High DDT concentration and/or DiFMUP substrate assays were used; a skilled artisan may use either assay.

The subject of assay [1] is phosphorylated STAT1 in B16-F10 cells. Put plainly: Phospho-STAT1 (Tyr701) HTRF assay in B16-F10 cells with IFN-gamma. The following applies: mouse IFN-gamma 100 ng/mL, 1 hour, read-out: pSTAT1 HTRF B16 EC50. Type of assay: cell-based. The procedure:
B16-F10 cells (ATCC, Manassas, VA, #CRL-6475) were cultured in DMEM growth medium (ThermoFisher Scientific, Waltham, MA, #11995-040) supplemented with 10% heat inactivated FBS (ThermoFisher Scientific, #16140-071) and 1% pen/strep (ThermoFisher Scientific, #15140-122). The cells were seeded into a white opaque 384-well tissue culture treated microplate (PerkinElmer, Waltham, MA, #6007688) at a density of 10,000 cells/well in 20 uL total volume and incubated overnight at 37 C and 5% CO2. 30 nL of compounds dissolved in DMSO were then transferred from a source plate into target wells with the Echo650 acoustic liquid handler (Beckman Coulter, Indianapolis, IN). Negative control wells received 30 nL of DMSO only (0.15% final concentration). Plates were returned to the incubator for 1 hour and then cells treated with either 5 uL of growth medium or 5 uL of growth medium containing 500 ng/ml of recombinant mouse IFN-gamma protein (R&D Systems, Minneapolis, MN, #485-MI/CF, 100 ng/mL final concentration) using the Assist automated pipetting platform (INTEGRA Biosciences, Hudson, NH). Plates were incubated at 37 C for 1 hour and assayed for phosphorylated STAT1 protein levels with the phospho-STAT1 (Tyr701) HTRF kit (Cisbio, Bedford, MA, #63ADK026PEH) according to manufacturer's instructions. HTRF signal intensity was collected with the EnVision 2105 plate reader (PerkinElmer) 24 hours later and analyzed with the Dotmatics software platform to calculate compound IC50 values.
For orientation: Time-resolved FRET reads energy transfer from a long-lived donor to a nearby acceptor.

For the compound `O=C1CN(c2c(O)cc(CNc3nc[nH]n3)cc2F)S(=O)(=O)N1` [EXAMPLE 5, 5-(4-(((1H-1,2,4-triazol-3-yl)amino)methyl)-2-fluoro-6-hydroxyphenyl)-1,2,5-thiadiazolidin-3-one 1,1-dioxide], the half-maximal effective concentration (EC50) (as a rule, the concentration at which the effect is half-maximal) in the assay on B16-F10 cells was 1690 nM; in assay [1] it was 930 nM. Also, the IC50 (as a rule, the point on the concentration scale where inhibition reaches its midpoint) at human PTPN2 was 40 nM.

Regarding `Cc1cc(NCc2cc(O)c(N3CC(=O)NS3(=O)=O)c(F)c2)sn1` [EXAMPLE 14, 5-(2-fluoro-6-hydroxy-4-(((3-methylisothiazol-5-yl)amino)methyl)phenyl)-1,2,5-thiadiazolidin-3-one 1,1-dioxide], the results for the EC50 (with B16-F10 cells; in assay [1]) were 2570 nM and 690 nM, respectively. Further, at human PTPN2, the IC50 came to 20 nM.

In the case of `O=C1CN(c2c(O)cc(CNc3cc[nH]n3)cc2F)S(=O)(=O)N1` [EXAMPLE 2, 5-(4-(((1H-pyrazol-3-yl)amino)methyl)-2-fluoro-6-hydroxyphenyl)-1,2,5-thiadiazolidin-3-one 1,1-dioxide], the EC50 (in the assay on B16-F10 cells; in assay [1]) was more than 15000 nM each time. The IC50 at human PTPN2 amounted to 20 nM.

Consider `Cc1cc(NCc2cc(O)c(N3CC(=O)NS3(=O)=O)c(F)c2)[nH]n1` [EXAMPLE 15, 5-(2-fluoro-6-hydroxy-4-(((3-methyl-1H-pyrazol-5-yl)amino)methyl)phenyl)-1,2,5-thiadiazolidin-3-one 1,1-dioxide], for which the EC50 was 380 nM with B16-F10 cells and 630 nM in assay [1]. In addition, the IC50 on human PTPN2 came to 4 nM.

In the case of `Cc1nnc(NCc2cc(O)c(N3CC(=O)NS3(=O)=O)c(F)c2)s1` [EXAMPLE 12, 5-(2-fluoro-6-hydroxy-4-(((5-methyl-1,3,4-thiadiazol-2-yl)amino)methyl)phenyl)-1,2,5-thiadiazolidin-3-one 1,1-dioxide], the EC50 turned out to be 560 nM in the assay on B16-F10 cells and 230 nM in assay [1]. For the same compound, at human PTPN2, the IC50 turned out to be 10 nM.

For the compound `O=C1CN(c2c(O)cc(CNc3nncs3)cc2F)S(=O)(=O)N1` [EXAMPLE 7, 5-(4-(((1,3,4-thiadiazol-2-yl)amino)methyl)-2-fluoro-6-hydroxyphenyl)-1,2,5-thiadiazolidin-3-one 1,1-dioxide], the EC50 with B16-F10 cells stood at 460 nM; in assay [1], 150 nM. Further, the IC50 at human PTPN2 is 10 nM.

On to `Cc1csc(NCc2cc(O)c(N3CC(=O)NS3(=O)=O)c(F)c2)n1` [EXAMPLE 13, 5-(2-fluoro-6-hydroxy-4-(((4-methylthiazol-2-yl)amino)methyl)phenyl)-1,2,5-thiadiazolidin-3-one 1,1-dioxide], for which the concentration for a half-maximal effect (EC50) is 1870 nM with B16-F10 cells and 230 nM in assay [1]. At human PTPN2, the IC50 was found to be 10 nM.

`Cn1ccc(NCc2cc(O)c(N3CC(=O)NS3(=O)=O)c(F)c2)n1` [EXAMPLE 6, 5-(2-fluoro-6-hydroxy-4-(((1-methyl-1H-pyrazol-3-yl)amino)methyl)phenyl)-1,2,5-thiadiazolidin-3-one 1,1-dioxide]: the half-maximal effective concentration (EC50) came out at 820 nM in the assay on B16-F10 cells and 6850 nM in assay [1]. In addition, on human PTPN2, the IC50 was 10 nM.

For the compound `O=C1CN(c2c(O)cc(CNc3ccon3)cc2F)S(=O)(=O)N1` [EXAMPLE 3, 5-(2-fluoro-6-hydroxy-4-((isoxazol-3-ylamino)methyl)phenyl)-1,2,5-thiadiazolidin-3-one 1,1-dioxide], the EC50 stood at 1120 nM in the assay with B16-F10 cells and 30 nM in assay [1]. At human PTPN2, the half-inhibitory concentration (IC50) turned out to be 20 nM.

Turning to `O=C1CN(c2c(O)cc(CNc3nccs3)cc2F)S(=O)(=O)N1` [EXAMPLE 9, 5-(2-fluoro-6-hydroxy-4-((thiazol-2-ylamino)methyl)phenyl)-1,2,5-thiadiazolidin-3-one 1,1-dioxide], the EC50 in the assay on B16-F10 cells amounted to 2300 nM; in assay [1], 1430 nM. Moreover, the IC50 on human PTPN2 was determined as 3 nM.

As to `Cc1cnc(NCc2cc(O)c(N3CC(=O)NS3(=O)=O)c(F)c2)[nH]1` [EXAMPLE 8, 5-(2-fluoro-6-hydroxy-4-(((5-methyl-1H-imidazol-2-yl)amino)methyl)phenyl)-1,2,5-thiadiazolidin-3-one 1,1-dioxide], the EC50 in the assay with B16-F10 cells was 5900 nM; in assay [1], 4650 nM. Also, the IC50 on human PTPN2 was 160 nM.

The record behind these values is patent US20240238258A1, “INHIBITORS OF PROTEIN TYROSINE PHOSPHATASE, COMPOSITIONS, AND METHODS OF USE” (BRISTOL-MYERS SQUIBB COMPANY, priority 2022, published 2024).
